What was measured:
Format in all cases: binding
[1] = molecular target: T1, PTGDR (Homo sapiens, UniProt Q13258); assay: NanoBRET screen HiBiT-PTGDR in HEK293; details: PTGDR
T1 construct: purchased Promega (in-house HiBiT-GPCR construct library, NanoBRET)
T1 sequence (Q13258 1-359): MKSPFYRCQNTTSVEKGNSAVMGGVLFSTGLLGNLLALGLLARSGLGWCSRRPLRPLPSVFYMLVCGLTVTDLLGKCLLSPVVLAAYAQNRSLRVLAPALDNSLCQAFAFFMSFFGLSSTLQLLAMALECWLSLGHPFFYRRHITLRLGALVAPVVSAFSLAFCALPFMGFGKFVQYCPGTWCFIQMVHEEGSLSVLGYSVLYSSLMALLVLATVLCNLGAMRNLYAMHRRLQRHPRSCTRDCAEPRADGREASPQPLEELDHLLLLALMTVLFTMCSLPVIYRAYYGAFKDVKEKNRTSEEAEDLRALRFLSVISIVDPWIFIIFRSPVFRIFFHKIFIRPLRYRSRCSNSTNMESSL
Procedure: (§1) Each tracer candidate was screened across the entire library of HiBiT-GPCR constructs using NanoBRET as the detection modality. As depicted in Figure 4A, the specificity of interactions was evaluated through decrease in BRET due to competitive displacement of a bound tracer by excess parental compound. Each tracer was analyzed for binding to each HiBiT-GPCR fusion in the absence and in the presence of competing parental compound. Briefly, HEK293 cells were transfected with HiBiT-GPCR constructs diluted into promoterless DNA to reduce expression and maximize translocation to the cell surface. Each tracer candidate was then screened at concentrations of 1 μM and 0.1 μM across cells expressing these fusions. Cells were treated for 1.5 h with tracer either alone or in the presence of 20 μM competing parental compound (i.e., control). BRET was measured upon addition of purified LgBiT and subsequent complementation with HiBiT genetically fused to a GPCR. The specificity of interactions was assessed through a decrease in BRET signal due to competitive displacement of the bound tracer. To further gauge the robustness of these interactions, the fold response over the control (i.e., BRETtracer/BRETcontrol) was calculated. We chose a 1.5-fold response, which translates to ≥7-fold signal over noise as the minimal threshold required to score an interaction as positive. […]. Below we highlight the screening results obtained for our exemplary fluorescent tracers based on Clozapine, Amitriptyline and AZD1283.
(§2) HiBiT-GPCR DNA constructs were diluted in 10 mM Tris pH 8 to a final concentration of 0.01 μg/μL, arrayed in 96-well plates and stored at −20 °C. For transfection, HEK293 cells were suspended in Opti-MEM (without phenol red) supplemented with 2% fetal bovine serum (Seradigm) and 100 units/mL penicillin–streptomycin (Gibco) at a final concentration of 220,000 cells/mL and dispensed into white 96-well plates at 90 μL/well. Subsequent transfections and screens were carried using an Agilent Bravo Automated Liquid Handling Platform. First, the 96-well HiBiT DNA arrays were diluted 25-fold in Opti-MEM (without serum or phenol red) to a final concentration of 0.0004 μg/μL and 20 μL of the diluted DNAs were transferred into new 96-well plates. Next, promoterless carrier DNA (1 μg/μL) was diluted 25-fold (0.04 μg/μL) and then dispensed into the diluted arrays at 20 μL/well. Following brief mixing, Viafect transfection reagent (Promega) diluted 16-fold into Opti-MEM was dispensed into the plates at 40 μL/well. After mixing by pipetting, plates were incubated for 10 min on the pipetting station deck. The DNA-transfection reagent complexes were then added to plates containing cells. To facilitate the screen, 10 μL of DNA-transfection reagent complexes were added in duplicates to the top 4 and bottom 4 rows, resulting in two identical 48-well arrays per plate. Plates with transfected cells were incubated for 18–20 h at 37 °C/5% CO2. A screen of each tracer across the entire library using two different concentrations requires duplicate plates of transfected cells. Depending on the number of tracers being screened, transfections can be scaled up using the same ratios. The next day, for each tracer, four 20× screening solutions in tracer dilution buffer (Promega) were prepared: two duplicates at final concentration of 20 μM and two duplicates at a final concentration of 2 μM. A competing unmodified compound was added to one of each duplicate at a final concentration of 400 μM. The four resulting solutions were diluted 4-fold in Opti-MEM without serum or phenol red to generate 5× solutions (5 µM and 0.5 µM tracer +/− 100 μM competing compound). To screen the library, a BioTek MultiFlo FX liquid dispenser was used to dispense 22.5 µL of tracer solution to the top 4 rows and 22.5 µL tracer + competing compound solution to the 4 bottom rows. Plates were briefly mixed on an orbital shaker and incubated for 1.5 h at room temperature. […]

[2] = molecular target: T2, ADORA1 (Homo sapiens, UniProt P30542); assay: NanoBRET screen HiBiT-ADORA1 in HEK293; details: ADORA1
T2 construct: purchased Promega (in-house HiBiT-GPCR construct library, NanoBRET)
T2 sequence (P30542 1-326): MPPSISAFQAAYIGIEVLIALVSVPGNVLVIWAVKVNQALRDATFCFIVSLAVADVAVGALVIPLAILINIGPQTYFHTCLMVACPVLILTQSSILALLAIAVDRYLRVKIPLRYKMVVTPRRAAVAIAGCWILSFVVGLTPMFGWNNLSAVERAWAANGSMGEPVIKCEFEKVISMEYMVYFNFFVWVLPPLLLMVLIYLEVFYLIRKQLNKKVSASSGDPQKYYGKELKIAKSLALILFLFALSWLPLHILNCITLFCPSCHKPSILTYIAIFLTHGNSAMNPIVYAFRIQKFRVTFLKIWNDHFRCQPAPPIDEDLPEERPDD
Procedure: as §1, §2

[3] = molecular target: T3, BRS3 (Homo sapiens, UniProt P32247); assay: NanoBRET screen HiBiT-BRS3 in HEK293; details: BRS3
T3 construct: purchased Promega (in-house HiBiT-GPCR construct library, NanoBRET)
T3 sequence (P32247 1-399): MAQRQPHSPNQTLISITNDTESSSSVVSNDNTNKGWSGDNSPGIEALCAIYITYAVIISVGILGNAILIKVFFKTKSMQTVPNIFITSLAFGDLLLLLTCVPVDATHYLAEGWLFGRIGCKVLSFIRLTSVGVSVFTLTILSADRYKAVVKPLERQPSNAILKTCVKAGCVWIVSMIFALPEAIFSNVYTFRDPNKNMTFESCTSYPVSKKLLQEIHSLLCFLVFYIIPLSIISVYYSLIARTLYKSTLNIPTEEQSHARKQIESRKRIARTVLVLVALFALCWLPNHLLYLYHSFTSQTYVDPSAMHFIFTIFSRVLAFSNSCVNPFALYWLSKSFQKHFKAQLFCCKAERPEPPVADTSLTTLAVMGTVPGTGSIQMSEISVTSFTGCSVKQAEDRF
Procedure: as §1, §2

Row | Compound | NanoBRET Fold Response ([1]; tracer 0.1μM) | NanoBRET Fold Response ([1]; tracer 1μM) | NanoBRET Fold Response ([2]; tracer 0.1μM) | NanoBRET Fold Response ([2]; tracer 1μM) | NanoBRET Fold Response ([3]; tracer 0.1μM) | NanoBRET Fold Response ([3]; tracer 1μM) | NanoBRET Fold Response ([1]; 0.1μM) | NanoBRET Fold Response ([1]; 1μM) | NanoBRET Fold Response ([2]; 0.1μM) | NanoBRET Fold Response ([2]; 1μM) | NanoBRET Fold Response ([3]; 0.1μM) | NanoBRET Fold Response ([3]; 1μM)
1 | Cc1cc2c(s1)Nc1ccccc1N=C2N1CCN(CCCNC(=O)CCOCCOCCOCCOCCNC(=O)CCc2ccc3n2[B-](F)(F)[N+]2=C(c4ccc[nH]4)C=CC2=C3)CC1 [Olanzapine-a-2-NB590] | 0.95 | 1.09 | 1.09 | 1.22 | 1.01 | 1.05 |  |  |  |  |  | 
2 | O=C(CCc1ccc2n1[B-](F)(F)[N+]1=C(c3ccc[nH]3)C=CC1=C2)NCc1ccc(C(=O)NCCOCCOCCNCC(O)COc2cccc3ccccc23)cc1 (stereo not drawn) [Propranolol-3-NB590] |  |  |  |  |  |  | 1.05 | 0.98 | 0.98 | 0.98 | 1.03 | 1.08
3 | O=C(CCc1ccc2n1[B-](F)(F)[N+]1=C(c3ccc[nH]3)C=CC1=C2)NCCOCCOCCNC(=O)OCCOCCN1CCN(C2=Nc3ccccc3Sc3ccccc32)CC1 [Quetiapine-a-2-NB590] | 0.99 | 1.02 | 1.30 | 1.07 | 0.96 | 0.98 |  |  |  |  |  | 
4 | Cc1nc2n(c(=O)c1CCN1CCC(c3noc4cc(F)ccc34)CC1)CCCC2OC(=O)NCCOCCOCCOCCOCCNC(=O)CCc1ccc2n1[B-](F)(F)[N+]1=C(c3ccc[nH]3)C=CC1=C2 (stereo not drawn) [Risperidone-2-NB590] | 1.01 | 0.93 | 1.04 | 1.05 | 0.95 | 0.98 |  |  |  |  |  | 
5 | CC(C)N(CC[C@H](c1ccccc1)c1cc(CCNC(=O)CCOCCOCCOCCOCCNC(=O)CCc2ccc3n2[B-](F)(F)[N+]2=C(c4ccc[nH]4)C=CC2=C3)ccc1O)C(C)C [Tolterodine-2-NB590] | 1.16 | 0.96 | 0.95 | 0.99 | 1.02 | 1.04 |  |  |  |  |  | 
6 | CC(C)N(CC[C@H](c1ccccc1)c1cc(CCNC(=O)c2ccc(CNC(=O)CCc3ccc4n3[B-](F)(F)[N+]3=C(c5ccc[nH]5)C=CC3=C4)cc2)ccc1O)C(C)C [Tolterodine-BZ-NB590] | 1.03 | 0.98 | 1.18 | 1.02 | 0.89 | 1.09 |  |  |  |  |  | 
7 | CCCn1c(=O)c2[nH]c(-c3ccc(OCC(=O)NCCNC(=O)CCOCCNC(=O)c4ccc(CNC(=O)CCc5ccc6n5[B-](F)(F)[N+]5=C(c7ccc[nH]7)C=CC5=C6)cc4)cc3)nc2n(CCC)c1=O [XAC-3-NB590] | 1.02 | 1.06 | 10.95 | 7.99 | 0.95 | 1.04 |  |  |  |  |  | 

From paper PMC8151276, “An Integrated Approach toward NanoBRET Tracers for Analysis of GPCR Ligand Engagement” (Molecules, 2021)
